Data on 6 compounds can be found in patent publication US5300498A, “6-piperazinyl-1H-pyrazolo[3,4-b]pyridine-3-carboxylic acids, esters, amides and related compounds” (Hoechst-Roussel Pharmaceuticals Incorporated, priority 1993, dated 1994).

Each structure is given as a SMILES string. Where a name gives a salt, the structure may show the parent alone.

By IC50 is commonly meant the point on the concentration scale where inhibition reaches its midpoint.

For the assay, the system named is serotonin (5HT) uptake. Nature of the assay: [^3 H]-Serotonin Uptake in Rat Whole Brain and Hypothalamic Synaptosomes. It is filed as biochemical, rat (male CR Wistar). The following applies: 50 nM [^3 H]-5HT, 37° C., 5 minutes, read-out: Inhibition of Serotonin Uptake, IC50. As to the method: [^3 H]-Serotonin Uptake in Rat Whole Brain and Hypothalamic Synaptosomes
A. Animals: Male CR Wistar rats (100-125 g).
1. Krebs-Henseleit Bicarbonate Buffer, pH 7.4 (KHBB):
Prior to use add to 200 ml, per assay:
Make a 4 liter batch, containing the following salts:
3. Sucrose solution: 0.32M sucrose containing 5 mM HEPES and 0.1 mM EDTA; pH to 7.3 using Tris base.
4. A 0.1 mM stock solution of serotonin creatinine SO4 is made up in 0.01N HCl. This is used to dilute the specific activity of the radiolabeled 5HT.
The final desired concentration of [^3 H]-5HT in the assay is 50 nM. The dilution factor is 0.8.
6. For most assays, a 0.5 mM stock solution of the test compound is made up initially in either 10 μl of glacial acetic acid, 100 μl DMSO or 10 μl of the recrystallization solvent, to which is added approximately 10 ml of distilled water. Compounds are initially screened in duplicate at 3 concentrations (10^-8, 10^-7 and 10^-6 M) made up in water.
43, 1114 (1984) and Dunkley, P. R., Jarvie, R. E., Heath, J. W., Kidd, G. J., Rostas, J. A. P. Brain Research 372, 115 (1986). Male Wistar rats are decapitated and the brain rapidly removed. […] The following procedures are performed on ice. Homogenization should be done with 4-5 up and down strokes at medium speeds (setting 4.5 to 5) to minimize synaptosome lysis.
Tubes are carefully removed, and the top layer and the top part of the middle (red) layer are discarded using a pasteur pipette. […] This is carefully removed, placed in a centrifuge tube, diluted with KHBB and spun at 21,000 g (13,000 rpm, Sorvall SS-34 rotor).
200 μl of the tissue suspension are added to each of 24 tubes (at a time) containing the 20 μl of vehicle or drug on ice. Three minutes later, 800 μl of KHBB containing [^3 H]-5HT are added, and the tubes are vortexed. […] Uptake is terminated by filtration through GF/B filter strips using a Brandel cell harvester (filter strips are presoaked in ice cold filtration buffer). Tubes are washed once with 5 ml of ice cold filtration buffer.
In the case of `CN1CCN(c2ccc3c(C#N)n[nH]c3n2)CC1` [6-(4-Methyl-1-piperazinyl)-1H-pyrazolo[3,4-b]pyridine-3-carbonitrile], the IC50 was found to be 764 nM.

Turning to `N#Cc1n[nH]c2nc(N3CCNCC3)ccc12` [6-(1-Piperazinyl)-1H-pyrazolo[3,4-b]pyridine-3-carbonitrile], the IC50 was 696 nM. `NC(=O)c1n[nH]c2nc(N3CCNCC3)ccc12` [6-(1-Piperazinyl)-1H-pyrazolo[3,4-b]pyridine-3-carboxamide hydrochloride hydrate]: the 50% inhibitory concentration (IC50) was found to be 7690 nM. Consider `CN1CCN(c2ccc3cn[nH]c3n2)CC1` [6-(4-Methyl-1-piperazinyl)-1H-pyrazolo[3,4-b]pyridine], for which the half-maximal inhibitory concentration (IC50) amounted to 8260 nM. Take `CN1CCN(c2ccc3cnn(C)c3n2)CC1` [1-Methyl-6-(4-methyl-1-piperazinyl)-1H-pyrazolo[3,4-b]pyridine]: the concentration for half-maximal inhibition (IC50) amounted to 3430 nM. In the case of `N#Cc1n[nH]c2nc(N3CCCNCC3)ccc12` [6-(Hexahydro-1H-1,4-diazepin-1-yl)-1H-pyrazolo[3,4-b]pyridine-3-carbonitril], the concentration for half-maximal inhibition (IC50) was 349 nM.
